These results are taken from ChEMBL document CHEMBL1201862, “PubChem BioAssay data set” (2004).

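Interpolation was linear, between the two tested concentrations surrounding the appropriate level; five concentrations were tested over 48 hours in 96-well plates. Abbreviation: GI50, concentration required for 50% inhibition of growth.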 Active and inactive are the calls of the source. No stated cut-off is given here; in the data, active = GI50 up to about 1.1 µM and inactive = higher. Where a SMILES comes first, the peptide text is derived from it. Bridges are numbered along the chain shown (N, C = ends). [ ]: non-standard residue; d: D form. The star is where a group is joined. ξ: configuration not given here. PhAc = O=C(Cc1ccccc1)*; ξP = O=C(O)C1CCCN1 Where only a bound is given, the exact number is not on record here.

Test systems include MCF7; HCC 2998; A498; UACC-62; SR; HCT-15; NCI-H226; IGROV-1; TK-10; SK-MEL-5; Hs-578T; OVCAR-5; U-251; MOLT-4; UACC-257; MDA-MB-231; ACHN; K562; CCRF-CEM; M14.
Common to all, as to assay: inhibition of tumour cell growth, NCI panel, 48 h

Consider `CCNCC(=O)O[C@]1(CC)C(=O)OCc2c1cc1n(c2=O)Cc2cc3ccccc3nc2-1`, for which the GI50 with MCF7 is 0.0693 µM (active); in the experiment on HCC 2998 it was 1.04 µM (active); in the experiment on A498 it was 0.661 µM (active); with UACC-62 it was 0.0468 µM (active); in the experiment with SR, < 0.0118 µM (active); in the experiment on HCT-15 it was 1.85 µM. The GI50 in the experiment on NCI-H226 was 0.115 µM (active); in the experiment with IGROV-1, 2.2 µM (inactive); with TK-10, 7.4 µM (inactive); in the experiment with SK-MEL-5, 0.267 µM (active); in the experiment with Hs-578T, 25.8 µM (inactive); with OVCAR-5 it was 0.811 µM (active). The GI50 was 0.0614 µM (active) in the experiment with U-251; 0.0195 µM (active) in the experiment on MOLT-4; 0.585 µM (active) with UACC-257; 6.71 µM (inactive) in the experiment with MDA-MB-231; 0.0441 µM (active) in the experiment on ACHN; 0.598 µM (active) in the experiment on K562. For the same compound, the results for the GI50 in the experiment on CCRF-CEM and in the experiment with M14 were 0.0142 µM (active) and 0.163 µM (active), respectively.
For `C=CCOc1ccc(C(/N=N\c2ccc(Cl)cc2)=N/NC(=O)c2ccccc2)cc1OC`, the GI50 in the experiment on MCF7 is > 100 µM (inactive); in the experiment with HCC 2998 it was 39 µM (inactive); with A498 it was > 100 µM (inactive); in the experiment with UACC-62, 23.8 µM (inactive); in the experiment with SR, > 100 µM (inactive); in the experiment with HCT-15, 80.7 µM. The GI50 was 53.7 µM (inactive) with NCI-H226; 43.8 µM (inactive) in the experiment with IGROV-1; > 100 µM (inactive) in the experiment with TK-10; 29.9 µM (inactive) in the experiment with SK-MEL-5; 73.1 µM (inactive) in the experiment with Hs-578T; > 100 µM (inactive) in the experiment with OVCAR-5. Besides, the GI50 with U-251 is 57.3 µM (inactive); in the experiment on MOLT-4, 32.1 µM (inactive); in the experiment on UACC-257, 41.8 µM (inactive); in the experiment on MDA-MB-231, > 100 µM (inactive); in the experiment on ACHN it was 89.1 µM (inactive); with CCRF-CEM, 29.5 µM (inactive). For the same compound, the GI50 with M14 is 73.5 µM (inactive).
As for `CCOc1cc(NC(C)=O)ccc1C(=O)NN1C(=O)C(Cl)C1c1ccccc1` (centres undefined), the GI50 in the experiment on MCF7 was 7.74 µM (inactive); in the experiment with HCC 2998, 17.4 µM (inactive); in the experiment on A498 it was 17.4 µM (inactive); in the experiment on UACC-62, 11 µM (inactive); with SR, 4.34 µM (inactive); with HCT-15, 16.1 µM. The GI50 in the experiment with NCI-H226 is 12.7 µM (inactive); with IGROV-1 it was 3.92 µM (inactive); with TK-10, 16.6 µM (inactive); in the experiment with SK-MEL-5, 10.1 µM (inactive); with Hs-578T it was 21.2 µM (inactive); in the experiment on OVCAR-5, 17.4 µM (inactive). Further, the GI50 with MOLT-4 was 3.68 µM (inactive); with UACC-257 it was 11.9 µM (inactive); with MDA-MB-231, 13.2 µM (inactive); in the experiment with ACHN, 16.2 µM (inactive); with K562, 5.32 µM (inactive); with CCRF-CEM it was 2.67 µM (inactive). Also, in the experiment with M14, the GI50 was 12.4 µM (inactive).
For the compound `COc1cc2c(cc1OC)C1Cc3ccccc3CCN1CC2` (centres undefined), the GI50 is > 100 µM (inactive) in the experiment with MCF7; 44 µM (inactive) with HCC 2998; > 100 µM (inactive) in the experiment with A498; > 100 µM (inactive) in the experiment with UACC-62; 92.9 µM (inactive) in the experiment on SR; over 100 µM in the experiment with HCT-15. The GI50 is 60.4 µM (inactive) in the experiment on NCI-H226; > 100 µM (inactive) in the experiment with IGROV-1; > 100 µM (inactive) in the experiment with TK-10; 58.1 µM (inactive) in the experiment on SK-MEL-5; > 100 µM (inactive) in the experiment with Hs-578T; > 100 µM (inactive) in the experiment on OVCAR-5. The GI50 was > 100 µM (inactive) with U-251; 35.1 µM (inactive) in the experiment on MOLT-4; > 100 µM (inactive) in the experiment on UACC-257; > 100 µM (inactive) in the experiment on MDA-MB-231; > 100 µM (inactive) with ACHN; 62.1 µM (inactive) in the experiment with K562. The GI50 in the experiment on CCRF-CEM and with M14 was > 100 µM (inactive) each time.
Turning to `Cc1ccc(/N=N/c2c(C)nn(C(=O)CC(=O)Nc3ccc(Cl)cc3)c2C)cc1C`, the GI50 is > 100 µM (inactive) with MCF7; > 100 µM (inactive) with HCC 2998; 70.1 µM (inactive) in the experiment on A498; 79.4 µM (inactive) in the experiment on UACC-62; 18.8 µM (inactive) in the experiment on SR; > 100 µM (inactive) in the experiment with NCI-H226. Besides, the GI50 is 37.2 µM (inactive) in the experiment with IGROV-1; 49.2 µM (inactive) with TK-10; > 100 µM (inactive) with SK-MEL-5; 7.05 µM (inactive) in the experiment on Hs-578T; 98.2 µM (inactive) in the experiment with OVCAR-5; 26.6 µM (inactive) with U-251. For the same compound, the GI50 is 28.7 µM (inactive) with MOLT-4; > 100 µM (inactive) in the experiment with UACC-257; 24.3 µM (inactive) in the experiment with MDA-MB-231; 5.79 µM (inactive) in the experiment on ACHN; 29.1 µM (inactive) with CCRF-CEM; > 100 µM (inactive) with M14.
For `COc1ccc(C2=Nc3cc(C)c(C)cc3NC(c3ccccc3)C2)cc1` (centres undefined), the GI50 is 6.46 µM (inactive) in the experiment on MCF7; > 100 µM (inactive) in the experiment with HCC 2998; > 100 µM (inactive) in the experiment on A498; > 100 µM (inactive) with UACC-62; 4.86 µM (inactive) in the experiment on SR; 41.4 µM in the experiment on HCT-15. In addition, the GI50 with NCI-H226 was > 100 µM (inactive); in the experiment with IGROV-1 it was > 100 µM (inactive); in the experiment with TK-10, > 100 µM (inactive); in the experiment with SK-MEL-5 it was 29.6 µM (inactive); in the experiment on Hs-578T it was > 100 µM (inactive); in the experiment with OVCAR-5, > 100 µM (inactive). Also, the GI50 in the experiment with U-251 was > 100 µM (inactive); with MOLT-4, 16.3 µM (inactive); in the experiment on UACC-257 it was 34.4 µM (inactive); in the experiment with MDA-MB-231, > 100 µM (inactive); in the experiment with ACHN, > 100 µM (inactive); with K562, 21.9 µM (inactive). Moreover, the GI50 with CCRF-CEM was 17.3 µM (inactive); in the experiment on M14 it was > 100 µM (inactive).
Consider `O=C(Cc1ccccc1)N[C@@H]1COC(=O)C2CCCN2C(=O)[C@@H]2CCCN2C1=O` (some centres undefined) (PhAc-[dS]-Pro-[ξP]; ester 1-C), for which the GI50 in the experiment on MCF7 was > 100 µM (inactive); with HCC 2998, > 100 µM (inactive); in the experiment on A498, > 100 µM (inactive); in the experiment with UACC-62, > 100 µM (inactive); with SR, > 100 µM (inactive); in the experiment on HCT-15, over 100 µM. Further, the GI50 with NCI-H226, with IGROV-1, in the experiment on TK-10, in the experiment with SK-MEL-5, in the experiment with Hs-578T and in the experiment on OVCAR-5 was > 100 µM (inactive) throughout. Besides, the GI50 with MOLT-4, with UACC-257, with MDA-MB-231, with ACHN, with CCRF-CEM and in the experiment on M14 was > 100 µM (inactive) each time.
